Source: patent US5900406A, “Use of antibiotics of the type 2-deoxystreptamine substituted with aminosugars to inhibit growth of microorganisms containing group I introns” (NZYM, Inc., priority 1991, dated 1999)
Read-outs that look alike come from different tables or passages of the source.

Experiments:
[1] = test system: td intron (group I intron of the thymidylate synthase gene of phage T4, truncated version); format: biochemical; settings: for IC50: read-out: concentration giving approximately 50% inhibition of the second splice step of the td intron; for ability to inhibit the group I intron splice reaction: antibiotics known to interact with 23S rRNA; for inhibition of group I splicing: at millimolar concentrations
Experimental: In vitro-transcribed and gel-purified^8 preRNA from a truncated version of the td intron^21 was incubated in a splicing buffer (50 mM Tris-HCl, pH 7.5, 5 mM MgCl2, 0.4 mM spermidine) for 10 min at 37° C. with GTP and gentamicin as indicated. Samples were separated on 5% acrylamide/7 M urea gels. RNA species are as follows: In-E2, intron-exon 2; L-ln, linear intron; E1-E2, ligated exons; E1, exon 1.
FIGS. 3a-c, Splicing experiments were done with the td intron as described in FIG. 2a, using several members of each family of aminoglycoside antibiotics (gentamicin, kanamycin and neomycin). Structures of the antibiotics can be found in Davies and Yagisaura in Biochemistry and Genetic Function Of Commercially Important Antibiotics, p. 329-354, Addison-Wesley, London, (1983) "Conc" is the antibiotic concentration at which about 50% inhibition was observed.
To monitor the splice process in vitro precursor RNA containing exon1, intron and exon2 was synthesized by in vitro transcription using bacteriophage RNA polymerase. During transcription, a radioactive labeled nucleotide was present in the nucleotide mixture and was incorporated in the RNA. This radioactive labeled RNA was then subjected to splicing conditions and after reaction the RNA splice products were separated from each other by electrophoresis on a denaturing acrylamide gel. The gel was dried and exposed for autoradiography.
Unspliced precursor RNA from the thymidylate synthase gene of the phage T4, which had been transcribed in vitro, and purified as previously described, (Schroeder, R., von Ahsen, U. & Belfort, M. Biochemistry 30, 3295-3303 (1991)) was incubated with increasing amounts of gentamicin under normal splicing conditions.
(§1) Materials and Methods: In vitro splicing experiments were performed with a truncated version of the td gene, containing 79 nt of exon I, 265 nt of intron sequences containing only the catalytic core (delta P6-2) and 21 nt of exon H (Schroeder, von Ahsen, & Belfort, 199 1, Biochemistry 30, 3295). The plasmids containing the Tetrahymena rRNA intron and the yeast mitochondrial cob intron I (the group II intron) were pBGST7 (Been & Cech, 1986, Cell 47, 207) and pBSbIl (Schmelzer and Schweyen, 1986, Cell 46, 557), respectively. The sunY intron is described in Michel et al. (1990, Genes & Development 4, 777). DNA was prepared by the alkaline-lysis procedure and linearized with appropriate restriction enzymes. Transcription was performed in a total volume of 20 μl at 30° C. for one (1) hour in buffer containing 40 mM Tris-HCl pH 7.5, 3 mM MgCl2, 0.4 mM spermidine, 1 mM of each NTP, 5 mM […], 10 units T7 RNA polymerase (Boehringer Mannheim), 10 μCi alpha-^35 S-CTP and 10 units RNAse inhibitor (Boehringer Mannheim). The reaction mixture was loaded on a 5% polyacrylamide/7 M urea gel. Precursor RNA was cut out of the gel and soaked in 400 μl elution buffer (10 mM Tris-HCl pH 7.5, 10 mM EDTA, 3.5 M NH4 OAc, 0.1% SDS) for two hours. After ethanol precipitation, the RNA was dissolved in H2 O-- before splicing experiments were performed the RNA was incubated in splicing buffer (40 mM Tris-HCl pH 7.5, 8 mM MgCl2, 0.4 mM spermidine) for 2 min at 56° C. For splicing of the suny intron and the Tetrahymena intron 50 mM NH4 Cl or 200 mM NaCl were added, respectively. Splicing was initiated by addition of guanosine at the appropriate concentration at 37° C. When splicing was to be inhibited by antibiotic, the antibiotic was added immediately before the guanosine. Splicing reactions were performed at 37° C. for 10'.

[2] = test system: sunY intron (shortened version, construct SYC1.3); assay: In vitro splicing inhibition of the sunY group I intron (GTP incorporation assay); format: biochemical, T4-phage
Experimental: as §1, with “DNA” for “Materials and Methods: In vitro splicing experiments were performed with a truncated version of the td gene, containing 79 nt of exon I, 265 nt of intron sequences containing only the catalytic core (delta P6-2) and 21 nt of exon H (Schroeder, von Ahsen, & Belfort, 199 1, Biochemistry 30, 3295). The plasmids containing the Tetrahymena rRNA intron and the yeast mitochondrial cob intron I (the group II intron) were pBGST7 (Been & Cech, 1986, Cell 47, 207) and pBSbIl (Schmelzer and Schweyen, 1986, Cell 46, 557), respectively. The sunY intron is described in Michel et al. (1990, Genes & Development 4, 777). DNA”, “10'. […] Samples were separated on 5% acrylamide/7 M urea gels.” for “10'.”

[3] = in vitro splicing, 37° C., 10 min

Compound	IC50 [1, 3] [µM]	further results
2"-phospho-Gentamicin C	~100	–
CN[C@@H]1[C@@H](O)[C@@H](O[C@@H]2[C@@H](O)[C@H](O[C@H]3OC(CN)=CC[C@H]3N)[C@@H](N)C[C@H]2NC(C)=O)OC[C@]1(C)O [1-N-acetyl-Sisomicin]	~100	–
CN[C@@H]1[C@@H](O)[C@@H](O[C@@H]2[C@H](O)[C@H](O[C@H]3OC(CN)=CC[C@H]3N)[C@@H](N)C[C@H]2N)OC[C@]1(C)O [5-epi-Sisomicin]	~0.5	–
CN[C@@H]1[C@@H](O[C@H]2O[C@H](CO)[C@@H](N)[C@H](O)[C@H]2O)OC2C[C@@H](N)[C@@H](O[C@H]3[C@H](O)[C@@H](O)[C@H](N)C[C@@H]3N)OC2[C@@H]1O (some centres unmarked) [Apramycin]	~200	–
CNC1C(O)C(OC2C(N)CC(N)C(OC3OC(CN)CCC3N)C2O)OCC1(C)O (centres unmarked) [Dihydrosisomicin]	~100	–
CN[C@@H]1[C@@H](O)[C@@H](O[C@@H]2[C@@H](O)[C@H](O)[C@@H](N)C[C@H]2N)OC[C@]1(C)O [Garamine]	~200	–
CN[C@@H]1[C@@H](O)[C@@H](O[C@@H]2[C@@H](O)[C@H](O[C@H]3O[C@H](CN)[C@@H](O)[C@H](O)[C@H]3O)[C@@H](N)C[C@H]2N)OC[C@]1(C)O [Gentamicin B]	~10	–
NC[C@H]1O[C@H](O[C@H]2[C@H](O)[C@@H](O[C@H]3O[C@H](CO)[C@@H](O)[C@H](N)[C@H]3O)[C@H](N)C[C@@H]2N)[C@H](N)[C@@H](O)[C@@H]1O [Kanamycin B]	~10	–
NC[C@@H]1O[C@H](O[C@H]2[C@@H](O)[C@H](O[C@@H]3[C@@H](O)[C@H](N)C[C@H](N)[C@H]3O[C@H]3O[C@H](CO)[C@@H](O)C[C@H]3N)O[C@@H]2CO)[C@H](N)[C@@H](O)[C@@H]1O[C@H]1O[C@H](CO)[C@@H](O)[C@H](O)[C@@H]1O [Lividomycin]	~500	–
NC[C@H]1O[C@H](O[C@H]2[C@H](O)[C@@H](O)[C@H](N)C[C@@H]2N)[C@H](N)[C@@H](O)[C@@H]1O [Neamine]	~200	–
NC[C@@H]1O[C@H](O[C@H]2[C@@H](O)[C@H](O[C@@H]3[C@@H](O)[C@H](N)C[C@H](N)[C@H]3O[C@H]3O[C@H](CN)[C@@H](O)[C@H](O)[C@H]3N)O[C@@H]2CO)[C@H](N)[C@@H](O)[C@@H]1O [Neomycin B]	~0.5	concentration to which the sunY intron is sensitive [2]: 10 AM; lowest concentration with splicing inhibition activity ([1]; activity at a concentration as low as): 0.5 µM; antibiotic concentration affecting the first step of splicing ([1]; first step affected only at this concentration): 100 µM
NC[C@@H]1O[C@H](O[C@H]2[C@@H](O)[C@H](O[C@@H]3[C@@H](O)[C@H](N)C[C@H](N)[C@H]3O[C@H]3O[C@H](CO)[C@@H](O)[C@H](O)[C@H]3N)O[C@@H]2CO)[C@H](N)[C@@H](O)[C@@H]1O [Paromomycin]	~100	–
CN[C@@H]1[C@@H](O)[C@@H](O[C@@H]2[C@@H](O)[C@H](O[C@H]3OC(CN)=CC[C@H]3N)[C@@H](N)C[C@H]2N)OC[C@]1(C)O [Sisomicin]	~50	–
O=C(N[C@H](CO)[C@H](O)c1ccc([N+](=O)[O-])cc1)C(Cl)Cl [chloramphenicol]	–	ability to inhibit the group I intron splice reaction [1]: not able to inhibit; inhibition of group I splicing [1]: inactive
CC[C@H]1OC(=O)[C@H](C)[C@@H](O[C@H]2C[C@@](C)(OC)[C@@H](O)[C@H](C)O2)[C@H](C)[C@@H](O[C@@H]2O[C@H](C)C[C@H](N(C)C)[C@H]2O)[C@](C)(O)C[C@@H](C)C(=O)[C@H](C)[C@@H](O)[C@]1(C)O [erythromycin]	–	ability to inhibit the group I intron splice reaction [1]: not able to inhibit; inhibition of group I splicing [1]: inactive
CN[C@H]1C[C@@H](N)[C@H](O)[C@@H](O[C@@H]2O[C@H](CO)[C@H](O)[C@@H]3OC4(O[C@H]23)O[C@H]([C@@H](N)CO)[C@H](O)[C@H](O)[C@H]4O)[C@@H]1O (some centres unmarked) [hygromycin B]	–	inhibition of group I splicing [1]: inactive
C[C@H]1O[C@H](O[C@H]2[C@H](O)[C@@H](O)[C@@H](O)[C@H](O)[C@@H]2O)[C@@H](N)C[C@@H]1NC(=N)C(=O)O [kasugamycin]	–	inhibition of group I splicing [1]: inactive
CN[C@@H]1[C@H](O)[C@H](NC)[C@H]2O[C@@]3(O)C(=O)C[C@@H](C)O[C@H]3O[C@@H]2[C@H]1O [spectinomycin]	–	inhibition of group I splicing [1]: inactive
C=C[C@]1(C)C[C@@H](OC(=O)CSCCN(CC)CC)[C@]2(C)[C@H](C)CC[C@]3(CCC(=O)[C@H]32)[C@@H](C)[C@@H]1O [tiamulin]	–	ability to inhibit the group I intron splice reaction [1]: not able to inhibit
Gentamicin C	–	IC50 [1]: ~1 µM
noursethricin	–	ability to inhibit the group I intron splice reaction [1]: not able to inhibit
